Reference: patent US20060293374A1, “Substituted isothiazolones” (priority 2005, published 2006)
pIC50: −log10 of the molar value.

What was measured:
Neutrophil LTB4 = Neutrophil LTB4 assay (calcium ionophore challenge, EIA); type: cell-based; settings: test concentration of 5 μM, human neutrophils, calcium ionophore 1 μM; for inhibition at 5 µM: Neutrophil, read-out: LTB4 percent inhibition
Description: Neutrophils purified from human blood were resuspended in HBSS buffer containing calcium and magnesium to a cell density of 1×10^6/mL. Purified neutrophils were then incubated with test compounds at a test concentration of 5 μM for 15 min at 37° C. Following incubation, the cells were challenged with calcium ionophore (1 μM final) for 15 minutes at 37° C. Negative control wells were incubated with equal volume of vehicle. The reaction was stopped by transferring the plate to ice for 5 minutes. The plate was centrifuged at 1500 RPM for 5 min at 4° C. LTB4 was calculated in cell free supernatants by EIA (Assay Design Inc).

[1] = test system: TXB2 Released by Human Platelets; assay: Ionophore and arachidonic acid induced TXB2 released by human platelets (EIA); type: cell-based; settings: human platelet-rich plasma; for pIC50: challenge with calcium ionophore (10 μM) or arachidonic acid (50 μM); for inhibition at 1 µM: test concentration of 1 μM, calcium ionophore or arachidonic acid challenge, read-out: TXB2 percent inhibition
Description: Ionophore and Arachidonic Acid Induced TXB2 Released by Human Platelets
The plate was incubated for 15 minutes at 37° C. Following incubation, platelets were challenged with calcium ionophore (final 10 μM) or arachidonic acid (AA) (final 50 μM) and the plate was further incubated at 37° C. for 15 min. The plate was transferred to an ice bed for 5 min in order to stop the reaction. Supernatants were assayed for TXB2 production by EIA (Assay Design Inc) after diluting with assay buffer (Assay Design Inc).

SMILES: O=c1c(Cl)c(Cl)sn1Cc1ccc2ccccc2c1 [Cpd 15, 4,5-dichloro-2-naphthalen-2-ylmethyl-isothiazol-3-one]
- inhibition at 5 µM (Neutrophil LTB4): 75%
- pIC50 [1]: 6.48

SMILES: O=c1ccsn1Cc1csc(-c2ccccc2)n1 [Cpd 54, 2-(2-phenyl-thiazol-4-ylmethyl)-isothiazol-3-one]
- inhibition at 5 µM (Neutrophil LTB4): 96%
- pIC50 [1]: 5.82

SMILES: CC(=O)c1ccc(Cn2sccc2=O)cc1 [Cpd 25, 2-(4-acetylbenzyl)-isothiazol-3-one]
- inhibition at 5 µM (Neutrophil LTB4): 54%
- pIC50 [1]: 6.00

SMILES: O=c1cc(Cl)sn1Cc1csc(-c2ccccc2)n1 [Cpd 53, 5-chloro-2-(2-phenyl-thiazol-4-ylmethyl)-isothiazol-3-one]
- inhibition at 5 µM (Neutrophil LTB4): 92%
- pIC50 [1]: 6.40

SMILES: O=c1cc(Cl)sn1Cc1ccc(-n2cc(Cl)cn2)cc1 [Cpd 55, 5-chloro-2-[4-(4-chloro-pyrazol-1-yl)-benzyl]-isothiazol-3-one]
- inhibition at 5 µM (Neutrophil LTB4): 72%
- pIC50 [1]: 5.49

SMILES: O=c1ccsn1Cc1csc2ccc(Cl)cc12 [Cpd 20, 2-(5-chloro-benzo[b]thiophen-3-ylmethyl)-isothiazol-3-one]
- inhibition at 5 µM (Neutrophil LTB4): 88%
- pIC50 [1]: 6.00

SMILES: O=c1c(Cl)c(Cl)sn1Cc1ccc(-c2csnn2)cc1 [Cpd 24, 4,5-dichloro-2-(4-[1,2,3]thiadiazol-4-yl-benzyl)-isothiazol-3-one]
- inhibition at 5 µM (Neutrophil LTB4): 52%
- pIC50 [1]: 6.30

SMILES: CC(=O)c1ccc(Cn2sc(Cl)c(Cl)c2=O)cc1 [Cpd 65, 4,5-dichloro-2-(4-acetylbenzyl)-isothiazol-3-one]
- inhibition at 5 µM (Neutrophil LTB4): 45%
- pIC50 [1]: 6.40

SMILES: O=c1ccsn1Cc1ccc(-n2cccn2)cc1 [Cpd 58, 2-(4-pyrazol-1-yl)-benzyl-isothiazol-3-one]
- LTB4 percent inhibition (Neutrophil LTB4): 100%
- pIC50 [1]: 6.00

SMILES: O=c1c(Cl)c(Cl)sn1Cc1csc2ccc(Cl)cc12 [Cpd 18, 4,5-dichloro-2-(5-chloro-benzo[b]thiophen-3-ylmethyl)-isothiazol-3-one]
- inhibition at 5 µM (Neutrophil LTB4): 71%
- pIC50 [1]: 6.55

SMILES: O=c1c(Cl)c(Cl)sn1Cc1ccc(C#Cc2cccc(Cl)c2)cc1 [Cpd 28, 4,5-dichloro-2-[4-(3-chlorophenylethynyl)-benzyl]-isothiazol-3-one]
- inhibition at 5 µM (Neutrophil LTB4): 100%
- pIC50 [1]: 5.46

SMILES: O=c1cc(Cl)sn1Cc1ccc2ccccc2c1 [Cpd 14, 5-chloro-2-naphthalen-2-ylmethyl-isothiazol-3-one]
- inhibition at 5 µM (Neutrophil LTB4): 96%
- pIC50 [1]: 6.46

SMILES: CC(c1ccc(S(C)(=O)=O)cc1)n1sc(Cl)c(Cl)c1=O (stereo not drawn) [Cpd 30, 4,5-dichloro-2-[1-(4-methanesulfonyl-phenyl)-ethyl]-isothiazol-3-one]
- inhibition at 5 µM (Neutrophil LTB4): 100%
- pIC50 [1]: 6.70

SMILES: C=Cc1ccc(Cn2sc(Cl)cc2=O)cc1 [Cpd 27, 5-chloro-2-(4-vinyl-benzyl)-isothiazol-3-one]
- inhibition at 5 µM (Neutrophil LTB4): 100%
- pIC50 [1]: 6.10

SMILES: O=c1ccsn1Cc1csc(-c2cccs2)n1 [Cpd 64, 2-(2-thiophen-2-yl-thiazol-4-ylmethyl)-isothiazol-3-one]
- inhibition at 5 µM (Neutrophil LTB4): 89%
- inhibition at 1 µM [1]: 39%

SMILES: O=c1cc(Cl)sn1Cc1csc2ccccc12 [Cpd 11, 2-benzo[b]thiophen-3-ylmethyl-5-chloro-isothiazol-3-one]
- inhibition at 5 µM (Neutrophil LTB4): 100%
- inhibition at 1 µM [1]: 68%

SMILES: O=c1cc(Cl)sn1Cc1csc2ccc(Cl)cc12 [Cpd 19, 5-chloro-2-(5-chloro-benzo[b]thiophen-3-ylmethyl)-isothiazol-3-one]
- inhibition at 5 µM (Neutrophil LTB4): 100%
- pIC50 [1]: 6.00

SMILES: O=c1ccsn1Cc1csc2ccccc12 [Cpd 12, 2-benzo[b]thiophen-3-ylmethyl-isothiazol-3-one]
- inhibition at 5 µM (Neutrophil LTB4): 89%
- pIC50 [1]: 6.12

SMILES: O=Cc1cccc(Cn2sc(Cl)cc2=O)c1 [Cpd 59, 5-chloro-2-(3-formylbenzyl)-isothiazol-3-one]
- inhibition at 5 µM (Neutrophil LTB4): 96%
- pIC50 [1]: 6.22

SMILES: O=c1cc(Cl)sn1Cc1nc(-c2ccccc2)sc1Cl [Cpd 52, 5-chloro-2-(5-chloro-2-phenyl-thiazol-4-ylmethyl)-isothiazol-3-one]
- inhibition at 5 µM (Neutrophil LTB4): 81%
- pIC50 [1]: 6.40

SMILES: O=C(c1ccccc1)c1ccc(Cn2sc(Cl)c(Cl)c2=O)cc1 [Cpd 34, 4,5-dichloro-2-(4-benzoylbenzyl)-isothiazol-3-one]
- inhibition at 5 µM (Neutrophil LTB4): 84%
- pIC50 [1]: 6.40

SMILES: O=c1cc(Cl)sn1Cc1cccc(-c2csnn2)c1 [Cpd 32, 5-chloro-2-(3-[1,2,3]thiadiazol-4-ylbenzyl)-isothiazol-3-one]
- inhibition at 5 µM (Neutrophil LTB4): 100%
- pIC50 [1]: 6.22

SMILES: CC(c1cccc2ccccc12)n1sc(Cl)cc1=O (stereo not drawn) [Cpd 5, 5-chloro-2-(1-naphthalen-1-yl-ethyl)-isothiazol-3-one]
- inhibition at 5 µM (Neutrophil LTB4): 100%
- pIC50 [1]: 6.22

SMILES: Cc1nc(-c2cccc(-n3sc(Cl)cc3=O)c2)cs1 [Cpd 47, 5-chloro-2-[3-(2-methyl-thiazol-4-yl)-phenyl]-isothiazol-3-one]
- inhibition at 5 µM (Neutrophil LTB4): 100%
- pIC50 [1]: 6.00

SMILES: Cc1nc(-c2cccc(-n3sccc3=O)c2)c(Cl)s1 [Cpd 45, 2-[3-(2-methyl-5-chloro-thiazol-4-yl)-phenyl]-isothiazol-3-one]
- inhibition at 5 µM (Neutrophil LTB4): 100%
- pIC50 [1]: 5.74

SMILES: N#Cc1cccc(C#Cc2ccc(Cn3sc(Cl)cc3=O)cc2)c1 [Cpd 43, 3-[4-(5-chloro-3-oxo-3H-isothiazol-2ylmethyl)-phenylethynyl]-benzonitrile]
- inhibition at 5 µM (Neutrophil LTB4): 100%
- pIC50 [1]: 5.80

SMILES: O=c1ccsn1Cc1sc2ccccc2c1Cl [Cpd 8, 2-(3-chloro-benzo[b]thiophen-2-ylmethyl)-isothiazol-3-one]
- inhibition at 5 µM (Neutrophil LTB4): 74%
- pIC50 [1]: 5.85

SMILES: O=c1cc(Cl)sn1[C@H]1C[C@@H]1c1ccccc1 [Cpd 42, (1S,2R)-5-chloro-2-(2-phenyl-cyclopropyl)-isothiazol-3-one]
- inhibition at 5 µM (Neutrophil LTB4): 61%
- pIC50 [1]: 6.40

SMILES: O=c1ccsn1Cc1ccc2ccccc2c1 [Cpd 13, 2-naphthalen-2-ylmethyl-isothiazol-3-one]
- inhibition at 5 µM (Neutrophil LTB4): 78%
- pIC50 [1]: 5.89

SMILES: O=c1cc(Cl)sn1Cc1ccc(S(=O)(=O)c2ccccc2)cc1 [Cpd 38, 5-chloro-2-(4-benzenesulfonyl-benzyl)-isothiazol-3-one]
- inhibition at 5 µM (Neutrophil LTB4): 93%
- pIC50 [1]: 6.05

SMILES: O=c1cc(Cl)sn1Cc1cccc2ccccc12 [Cpd 1, 5-chloro-2-naphthalen-1-ylmethyl-isothiazol-3-one]
- inhibition at 5 µM (Neutrophil LTB4): 99%
- pIC50 [1]: 5.52

SMILES: O=c1cc(Cl)sn1C1CCc2ccccc21 (stereo not drawn) [Cpd 3, 5-chloro-2-indan-1-yl-isothiazol-3-one]
- inhibition at 5 µM (Neutrophil LTB4): 86%
- pIC50 [1]: 6.05

SMILES: O=c1cc(Cl)sn1Cc1ccc(S(=O)(=O)c2ccc(F)cc2)cc1 [Cpd 36, 5-chloro-2-[4-(4-fluoro-benzenesulfonyl)-benzyl]-isothiazol-3-one]
- inhibition at 5 µM (Neutrophil LTB4): 56%
- pIC50 [1]: 6.30

SMILES: O=c1c(Cl)c(Cl)sn1Cc1csc2ccccc12 [Cpd 10, 2-benzo[b]thiophen-3-ylmethyl-4,5-dichloro-isothiazol-3-one]
- inhibition at 5 µM (Neutrophil LTB4): 100%
- inhibition at 1 µM [1]: 84%

SMILES: C#Cc1ccc(Cn2sc(Cl)cc2=O)cc1 [Cpd 40, 5-chloro-2-(4-ethynyl-benzyl)-isothiazol-3-one]
- inhibition at 5 µM (Neutrophil LTB4): 100%
- pIC50 [1]: 6.70

SMILES: O=c1c(Cl)c(Cl)sn1C(c1ccccc1)c1ccccn1 (stereo not drawn) [Cpd 33, 4,5-dichloro-2-(phenyl-pyridin-2-yl-methyl)-isothiazol-3-one]
- inhibition at 5 µM (Neutrophil LTB4): 95%
- pIC50 [1]: 6.70

SMILES: O=c1cc(Cl)sn1Cc1nc(-c2cccs2)sc1Cl [Cpd 61, 5-chloro-2-(5-chloro-2-thiophen-2-yl-thiazol-4-ylmethyl)-isothiazol-3-one]
- inhibition at 5 µM (Neutrophil LTB4): 100%
- inhibition at 1 µM [1]: 49%

SMILES: O=c1cc(Cl)sn1Cc1ccc(-n2cccn2)cc1 [Cpd 56, 5-chloro-2-(4-pyrazol-1-yl)-benzyl-isothiazol-3-one]
- LTB4 percent inhibition (Neutrophil LTB4): 48%
- pIC50 [1]: 6.10

SMILES: O=c1cc(Cl)sn1Cc1ccc(-c2ccco2)cc1 [Cpd 23, 5-chloro-2-(4-furan-2-yl-benzyl)-isothiazol-3-one]
- inhibition at 5 µM (Neutrophil LTB4): 100%
- pIC50 [1]: 6.52

SMILES: CCCCCS(=O)(=O)c1ccc(Cn2sc(Cl)cc2=O)cc1 [Cpd 41, 5-chloro-2-[4-(pentane-1-sulfonyl)-benzyl]-isothiazol-3-one]
- inhibition at 5 µM (Neutrophil LTB4): 100%
- pIC50 [1]: 6.30

SMILES: Cc1nc(-c2ccc(Cn3sc(Cl)cc3=O)cc2)cs1 [Cpd 31, 5-chloro-2-[4-(2-methyl-thiazol-4-yl)-benzyl]-isothiazol-3-one]
- inhibition at 5 µM (Neutrophil LTB4): 88%
- inhibition at 1 µM [1]: 54%

SMILES: O=c1ccsn1Cc1ccc(-c2csnn2)cc1 [Cpd 22, 2-(4-[1,2,3]thiadiazol-4-yl-benzyl)-isothiazol-3-one]
- inhibition at 5 µM (Neutrophil LTB4): 50%
- pIC50 [1]: 5.92

SMILES: Cc1nc(-c2cccc(-n3sccc3=O)c2)cs1 [Cpd 46, 2-[3-(2-methyl-thiazol-4-yl)-phenyl]-isothiazol-3-one]
- inhibition at 5 µM (Neutrophil LTB4): 64%
- pIC50 [1]: 6.00

SMILES: CS(=O)(=O)c1ccc(Cn2sc(Cl)c(Cl)c2=O)cc1 [Cpd 29, 4,5-dichloro-2-(4-methanesulfonyl-benzyl)-isothiazol-3-one]
- inhibition at 5 µM (Neutrophil LTB4): 64%
- pIC50 [1]: 6.52

SMILES: O=c1ccsn1Cc1nc(-c2cccs2)sc1Cl [Cpd 63, 2-(5-chloro-2-thiophen-2-yl-thiazol-4-ylmethyl)-isothiazol-3-one]
- inhibition at 5 µM (Neutrophil LTB4): 86%
- inhibition at 1 µM [1]: 42%
